This passage reports mortality results from ChEMBL document CHEMBL3046681, “Synthesis and insecticidal evaluation of propesticides of benzoylphenylureas” (2005).

What all share (type): functional
The test system of assay [1] is Mythimna separata. The experiment in a line: Insecticidal activity against fourth instar larvae of Mythimna separata (Oriental armyworm) in compound treated corn leaves assessed as mortality at 500 mg/kg by foliar application.
The test system of assay [2] is Mythimna separata. As to the kind of experiment: Insecticidal activity against fourth instar larvae of Mythimna separata (Oriental armyworm) in compound treated corn leaves assessed as mortality at 50 mg/kg by foliar application.
Assay [3] relates to Mythimna separata. The experiment in a line: Insecticidal activity against fourth instar larvae of Mythimna separata (Oriental armyworm) in compound treated corn leaves assessed as mortality at 200 mg/kg by foliar application.
Assay [4] deals with Mythimna separata. The experiment in a line: Insecticidal activity against fourth instar larvae of Mythimna separata (Oriental armyworm) in compound treated corn leaves assessed as mortality at 0.2 mg/kg by foliar application.
Assay [5] relates to Mythimna separata. As to the kind of experiment: Insecticidal activity against fourth instar larvae of Mythimna separata (Oriental armyworm) in compound treated corn leaves assessed as mortality at 0.5 mg/kg by foliar application.
Assay [6] concerns Mythimna separata. As to the kind of experiment: Insecticidal activity against fourth instar larvae of Mythimna separata (Oriental armyworm) in compound treated corn leaves assessed as mortality at 1 mg/kg by foliar application.
Assay [7] deals with Mythimna separata. As to the kind of experiment: Insecticidal activity against fourth instar larvae of Mythimna separata (Oriental armyworm) in compound treated corn leaves assessed as mortality at 5 mg/kg by foliar application.
Assay [8] relates to Mythimna separata. The experiment in a line: Insecticidal activity against fourth instar larvae of Mythimna separata (Oriental armyworm) in compound treated corn leaves assessed as mortality at 10 mg/kg by foliar application.
The subject of assay [9] is Mythimna separata. The experiment in a line: Insecticidal activity against fourth instar larvae of Mythimna separata (Oriental armyworm) in compound treated corn leaves assessed as mortality at 25 mg/kg by foliar application.
Assay [10] deals with Mythimna separata. The experiment in a line: Insecticidal activity against fourth instar larvae of Mythimna separata (Oriental armyworm) in compound treated corn leaves assessed as mortality at 100 mg/kg by foliar application.
Assay [11] concerns Mythimna separata. The experiment in a line: Insecticidal activity against fourth instar larvae of Mythimna separata (Oriental armyworm) in compound treated corn leaves assessed as mortality at 0.1 mg/kg by foliar application.

What is called mortality is the share of the test organisms that died. For the compound `CCOC(=O)N(C(=O)NC(=O)c1c(F)cccc1F)c1ccc(Cl)cc1`, in the assay with Mythimna separata [1], the mortality at 500 mg/kg came out at 100%. Further, in the assay on Mythimna separata [2], the mortality at 50 mg/kg amounted to 100%. The mortality at 200 mg/kg with Mythimna separata [3] was found to be 100%. Besides, the mortality at 0.2 mg/kg with Mythimna separata [4] came out at 0%. Besides, in the assay with Mythimna separata [5], the mortality at 0.5 mg/kg is 0%. For the same compound, the mortality at 1 mg/kg with Mythimna separata [6] came to 0%. Also, the mortality at 5 mg/kg in the assay on Mythimna separata [7] amounted to 0%. Moreover, in the assay with Mythimna separata [8], the mortality at 10 mg/kg is 0%. The mortality at 25 mg/kg in the assay on Mythimna separata [9] turned out to be 100%. In addition, in the assay with Mythimna separata [10], the mortality at 100 mg/kg was 100%.
For the compound `O=C(NC(=O)N(C(=O)OCc1ccccc1)c1ccc(Cl)cc1)c1c(F)cccc1F`, the mortality at 500 mg/kg with Mythimna separata [1] amounted to 100%. The mortality at 50 mg/kg in the assay on Mythimna separata [2] came to 0%. Moreover, in the assay on Mythimna separata [3], the mortality at 200 mg/kg came to 100%. In addition, the mortality at 0.2 mg/kg in the assay with Mythimna separata [4] turned out to be 0%. The mortality at 0.5 mg/kg in the assay with Mythimna separata [5] came to 0%. Besides, the mortality at 1 mg/kg in the assay with Mythimna separata [6] came out at 0%. Moreover, in the assay on Mythimna separata [7], the mortality at 5 mg/kg amounted to 0%. For the same compound, the mortality at 10 mg/kg in the assay on Mythimna separata [8] was determined as 0%. For the same compound, the mortality at 25 mg/kg with Mythimna separata [9] turned out to be 0%. Besides, the mortality at 100 mg/kg with Mythimna separata [10] amounted to 70%.
For the compound `CC(C)(C)OC(=O)N(C(=O)NC(=O)c1c(F)cccc1F)c1ccc(Cl)cc1`, the mortality at 500 mg/kg in the assay on Mythimna separata [1] is 100%. Moreover, the mortality at 50 mg/kg in the assay with Mythimna separata [2] is 100%. Also, the mortality at 200 mg/kg in the assay with Mythimna separata [3] was 100%. Further, in the assay with Mythimna separata [4], the mortality at 0.2 mg/kg worked out at 0%. The mortality at 0.5 mg/kg with Mythimna separata [5] is 0%. In addition, in the assay on Mythimna separata [6], the mortality at 1 mg/kg came to 5%. The mortality at 5 mg/kg in the assay with Mythimna separata [7] turned out to be 95%. Besides, in the assay with Mythimna separata [8], the mortality at 10 mg/kg was determined as 100%. For the same compound, the mortality at 25 mg/kg in the assay with Mythimna separata [9] was determined as 100%. In addition, in the assay with Mythimna separata [10], the mortality at 100 mg/kg is 100%.
As for `CCOC(=O)N(C(=O)NC(=O)c1c(F)cccc1F)c1ccc(C(F)(F)F)cc1`, the mortality at 500 mg/kg with Mythimna separata [1] came out at 100%. Further, the mortality at 50 mg/kg in the assay with Mythimna separata [2] stood at 100%. In addition, the mortality at 200 mg/kg in the assay with Mythimna separata [3] turned out to be 100%. Also, in the assay on Mythimna separata [4], the mortality at 0.2 mg/kg amounted to 0%. For the same compound, the mortality at 0.5 mg/kg with Mythimna separata [5] worked out at 0%. In addition, in the assay on Mythimna separata [6], the mortality at 1 mg/kg was found to be 0%. Besides, the mortality at 5 mg/kg in the assay on Mythimna separata [7] came out at 0%. Also, in the assay with Mythimna separata [8], the mortality at 10 mg/kg was found to be 0%. The mortality at 25 mg/kg in the assay on Mythimna separata [9] amounted to 5%. In addition, the mortality at 100 mg/kg with Mythimna separata [10] was found to be 100%.
In the case of `O=C(NC(=O)N(C(=O)OCc1ccccc1)c1ccc(C(F)(F)F)cc1)c1c(F)cccc1F`, the mortality at 500 mg/kg in the assay on Mythimna separata [1] was determined as 100%. Further, the mortality at 50 mg/kg with Mythimna separata [2] turned out to be 0%. The mortality at 200 mg/kg in the assay on Mythimna separata [3] was 30%. Moreover, the mortality at 0.2 mg/kg with Mythimna separata [4] was found to be 0%. Besides, the mortality at 0.5 mg/kg with Mythimna separata [5] is 0%. In addition, the mortality at 1 mg/kg with Mythimna separata [6] is 0%. In addition, the mortality at 5 mg/kg in the assay on Mythimna separata [7] amounted to 0%. Also, in the assay on Mythimna separata [8], the mortality at 10 mg/kg is 0%. Further, in the assay on Mythimna separata [9], the mortality at 25 mg/kg is 0%. The mortality at 100 mg/kg with Mythimna separata [10] was found to be 0%.
Turning to `CC(C)(C)OC(=O)N(C(=O)NC(=O)c1c(F)cccc1F)c1ccc(C(F)(F)F)cc1`, the mortality at 500 mg/kg in the assay with Mythimna separata [1] is 100%. Moreover, in the assay on Mythimna separata [2], the mortality at 50 mg/kg was 100%. Further, in the assay with Mythimna separata [3], the mortality at 200 mg/kg amounted to 100%. The mortality at 0.2 mg/kg in the assay with Mythimna separata [4] turned out to be 0%. Further, in the assay on Mythimna separata [5], the mortality at 0.5 mg/kg came to 0%. In addition, the mortality at 1 mg/kg in the assay on Mythimna separata [6] turned out to be 0%. The mortality at 5 mg/kg in the assay on Mythimna separata [7] was determined as 75%. Besides, the mortality at 10 mg/kg with Mythimna separata [8] was 100%. Moreover, the mortality at 25 mg/kg in the assay on Mythimna separata [9] was 100%. Moreover, the mortality at 100 mg/kg with Mythimna separata [10] is 100%.
For the compound `CCOC(=O)N(C)SN(C(=O)NC(=O)c1c(F)cccc1F)c1ccc(Cl)cc1`, the mortality at 500 mg/kg with Mythimna separata [1] came to 100%. Besides, the mortality at 50 mg/kg in the assay on Mythimna separata [2] was found to be 100%. Further, the mortality at 200 mg/kg in the assay with Mythimna separata [3] worked out at 100%. Also, the mortality at 0.1 mg/kg in the assay on Mythimna separata [11] is 0%. Moreover, in the assay with Mythimna separata [4], the mortality at 0.2 mg/kg came to 5%. Moreover, the mortality at 1 mg/kg in the assay with Mythimna separata [6] amounted to 20%. The mortality at 5 mg/kg with Mythimna separata [7] came out at 100%. The mortality at 10 mg/kg in the assay with Mythimna separata [8] worked out at 100%. Besides, the mortality at 25 mg/kg in the assay on Mythimna separata [9] turned out to be 100%. In addition, the mortality at 100 mg/kg in the assay on Mythimna separata [10] amounted to 100%.
For the compound `CCOC(=O)N(C)SN(C(=O)NC(=O)c1c(F)cccc1F)c1ccc(C(F)(F)F)cc1`, the mortality at 500 mg/kg in the assay with Mythimna separata [1] stood at 100%. In addition, in the assay with Mythimna separata [2], the mortality at 50 mg/kg is 100%. In the assay with Mythimna separata [3], the mortality at 200 mg/kg was found to be 100%. Besides, the mortality at 0.1 mg/kg with Mythimna separata [11] amounted to 0%. For the same compound, the mortality at 0.2 mg/kg with Mythimna separata [4] is 85%. Further, the mortality at 0.5 mg/kg with Mythimna separata [5] is 95%. Besides, the mortality at 1 mg/kg in the assay with Mythimna separata [6] came out at 100%. Further, the mortality at 5 mg/kg in the assay with Mythimna separata [7] amounted to 100%. In the assay with Mythimna separata [8], the mortality at 10 mg/kg stood at 100%. Also, the mortality at 25 mg/kg in the assay on Mythimna separata [9] was determined as 100%. Moreover, the mortality at 100 mg/kg in the assay on Mythimna separata [10] came out at 100%.
Consider `CN(SN(C(=O)NC(=O)c1c(F)cccc1F)c1ccc(C(F)(F)F)cc1)C(=O)OC(C)(C)C`, for which, in the assay on Mythimna separata [1], the mortality at 500 mg/kg stood at 100%. Moreover, the mortality at 50 mg/kg in the assay on Mythimna separata [2] is 100%. Moreover, in the assay on Mythimna separata [3], the mortality at 200 mg/kg amounted to 100%. In the assay on Mythimna separata [11], the mortality at 0.1 mg/kg turned out to be 0%. Further, the mortality at 0.2 mg/kg with Mythimna separata [4] is 35%. The mortality at 0.5 mg/kg in the assay on Mythimna separata [5] was found to be 100%. Moreover, the mortality at 1 mg/kg with Mythimna separata [6] stood at 100%. Also, in the assay on Mythimna separata [7], the mortality at 5 mg/kg worked out at 100%. Moreover, the mortality at 10 mg/kg in the assay with Mythimna separata [8] came out at 100%. Also, the mortality at 25 mg/kg in the assay with Mythimna separata [9] was 100%. The mortality at 100 mg/kg in the assay with Mythimna separata [10] was 100%.
`CN(SN(C(=O)NC(=O)c1c(F)cccc1F)c1ccc(Cl)cc1)C(=O)OCc1ccccc1`: the mortality at 500 mg/kg in the assay on Mythimna separata [1] was determined as 100%. Moreover, in the assay on Mythimna separata [2], the mortality at 50 mg/kg was 100%. Further, the mortality at 200 mg/kg with Mythimna separata [3] came to 100%. In the assay on Mythimna separata [11], the mortality at 0.1 mg/kg is 0%. Moreover, the mortality at 0.2 mg/kg in the assay on Mythimna separata [4] stood at 0%. In addition, the mortality at 0.5 mg/kg in the assay with Mythimna separata [5] came to 55%. In addition, the mortality at 1 mg/kg with Mythimna separata [6] was 85%. Moreover, the mortality at 5 mg/kg in the assay with Mythimna separata [7] worked out at 100%. Besides, in the assay on Mythimna separata [8], the mortality at 10 mg/kg came out at 100%. In addition, the mortality at 25 mg/kg in the assay with Mythimna separata [9] amounted to 100%. Further, the mortality at 100 mg/kg in the assay with Mythimna separata [10] turned out to be 100%.
For the compound `O=C(NC(=O)c1c(F)cccc1F)Nc1ccc(Cl)cc1` [DIFLUBENZURON], the mortality at 500 mg/kg in the assay on Mythimna separata [1] came out at 100%. In addition, in the assay on Mythimna separata [2], the mortality at 50 mg/kg was found to be 100%. The mortality at 200 mg/kg with Mythimna separata [3] was 100%. Besides, in the assay on Mythimna separata [11], the mortality at 0.1 mg/kg worked out at 0%. Further, the mortality at 0.2 mg/kg in the assay on Mythimna separata [4] amounted to 45%. The mortality at 0.5 mg/kg with Mythimna separata [5] came out at 100%. For the same compound, the mortality at 1 mg/kg in the assay on Mythimna separata [6] was found to be 100%. For the same compound, the mortality at 5 mg/kg in the assay with Mythimna separata [7] was 100%. Further, in the assay on Mythimna separata [8], the mortality at 10 mg/kg is 100%. The mortality at 25 mg/kg with Mythimna separata [9] came out at 100%. Moreover, the mortality at 100 mg/kg with Mythimna separata [10] was found to be 100%.
